We go through three molecules from patent US20090082332A1, “PURINE DERIVATIVES FOR THE TREATMENT OF VIRAL OR ALLERGIC DISEASES AND CANCERS” (priority 2005, published 2009).

The assay addresses T1, Recombinant human TLR7 (Homo sapiens, UniProt Q9NYK1).
T1 construct: expressed in transfected cells; host or cells: HEK293 cell line stably expressing the pNiFty2-SEAP reporter plasmid; TLR7 in pUNO vector, blasticidin selection
T1 sequence (Q9NYK1 27-1049): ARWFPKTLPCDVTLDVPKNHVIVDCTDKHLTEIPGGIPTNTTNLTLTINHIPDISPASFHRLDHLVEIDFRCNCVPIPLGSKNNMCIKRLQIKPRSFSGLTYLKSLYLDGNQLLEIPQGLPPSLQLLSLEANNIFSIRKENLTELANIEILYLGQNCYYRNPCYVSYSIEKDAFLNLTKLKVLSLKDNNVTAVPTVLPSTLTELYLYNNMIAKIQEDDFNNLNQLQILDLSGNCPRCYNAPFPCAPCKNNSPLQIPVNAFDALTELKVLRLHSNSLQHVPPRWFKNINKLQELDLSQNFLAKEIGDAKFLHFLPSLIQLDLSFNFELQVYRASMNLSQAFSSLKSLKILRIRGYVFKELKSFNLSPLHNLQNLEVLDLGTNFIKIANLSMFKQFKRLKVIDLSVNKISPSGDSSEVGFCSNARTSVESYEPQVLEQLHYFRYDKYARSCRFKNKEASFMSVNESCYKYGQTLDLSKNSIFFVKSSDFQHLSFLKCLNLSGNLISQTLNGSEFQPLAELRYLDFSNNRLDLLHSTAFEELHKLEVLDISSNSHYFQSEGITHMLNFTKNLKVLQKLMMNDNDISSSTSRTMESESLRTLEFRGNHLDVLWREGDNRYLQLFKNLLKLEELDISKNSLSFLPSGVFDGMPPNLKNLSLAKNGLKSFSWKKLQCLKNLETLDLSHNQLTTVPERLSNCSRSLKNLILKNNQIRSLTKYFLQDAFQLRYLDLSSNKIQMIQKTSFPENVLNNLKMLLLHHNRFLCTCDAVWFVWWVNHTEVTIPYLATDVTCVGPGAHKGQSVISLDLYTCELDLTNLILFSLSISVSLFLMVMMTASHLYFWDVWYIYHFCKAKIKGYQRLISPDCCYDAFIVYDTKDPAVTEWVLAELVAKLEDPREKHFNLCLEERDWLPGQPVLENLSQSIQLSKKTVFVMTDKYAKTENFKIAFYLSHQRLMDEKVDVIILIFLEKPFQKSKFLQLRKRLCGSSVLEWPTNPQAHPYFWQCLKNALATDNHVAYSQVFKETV
The experiment in a line: Human TLR7 assay (SEAP reporter in HEK293 cells). The format is cell-based. Particulars: HEK293 cells expressing human TLR7 and pNiFty2-SEAP reporter; overnight incubation at 37° C., 0.1% (v/v) DMSO. An excerpt:
Recombinant human TLR7 was stably expressed in a HEK293 cell line already stably expressing the pNiFty2-SEAP reporter plasmid; integration of the reporter gene was maintained by selection with the antibiotic zeocin. The most common variant sequence of human TLR7 (represented by the EMBL sequence AF240467) was cloned into the mammalian cell expression vector pUNO and transfected into this reporter cell-line. Transfectants with stable expression were selected using the antibiotic blasticidin. In this reporter cell-line, expression of secreted alkaline phosphatase (SEAP) is controlled by an NFkB/ELAM-1 composite promoter comprising five NFkB sites combined with the proximal ELAM-1 promoter. TLR signaling leads to the translocation of NFkB and activation of the promoter results in expression of the SEAP gene. TLR7-specific activation was assessed by determining the level of SEAP produced following overnight incubation of the cells at 37° C. with the standard compound in the presence of 0.1% (v/v) dimethylsulfoxide (DMSO). Concentration dependent induction of SEAP production by compounds was expressed as the log of the minimal effective concentration of compound to induce SEAP release (pMEC).

For `CCCCOc1nc(N)c2[nH]c(=O)n(CCCCN(Cc3cccc(CC(=O)OC)c3)C3CCN(C)CC3)c2n1` [Example 10, Methyl (3-{[[4-(6-amino-2-butoxy-8-oxo-7,8-dihydro-9H-purin-9-yl)butyl] (1-methylpiperidin-4-yl)amino]methyl}phenyl)acetate], the “pMEC (log of the minimal effective concentration of compound to induce SEAP release)” value is given as “pMEC 8.4”. For `CCCCOc1nc(N)c2[nH]c(=O)n(CCCN(Cc3cccc(CC(=O)OC)c3)C3CCN(CC#N)CC3)c2n1` [Example 14, Methyl [3-({[3-(6-amino-2-butoxy-8-oxo-7,8-dihydro-9H-purin-9-yl)propyl][1-(cyanomethyl)piperidin-4-yl]amino}methyl)phenyl]acetate], the “pMEC (log of the minimal effective concentration of compound to induce SEAP release)” value is on record as “pMEC 7.7”.

Consider `CCCCOc1nc(N)c2[nH]c(=O)n(CCCN(Cc3cccc(CC(=O)OC)c3)C3CCN(CCCC(=O)OC(C)(C)C)CC3)c2n1` [Example 17, tert-Butyl 4-(4-{[3-(6-amino-2-butoxy-8-oxo-7,8-dihydro-9H-purin-9-yl)propyl][3-(2-methoxy-2-oxoethyl)benzyl]amino}piperidin-1-yl)butanoate], for which the “pMEC (log of the minimal effective concentration of compound to induce SEAP release)” value was “pMEC 9.1”.
